From ChEMBL document CHEMBL1201862, “PubChem BioAssay data set” (2004) come the findings set out here.

Common to all, as to assay: NCI tumour cell line growth inhibition, 48 h
Assay [1] has as its system 786-0.
Assay [2] has as its system A498.
For assay [3], the system named is A549.
Assay [4] deals with CCRF-CEM.
For assay [5], the system named is COLO 205.
Assay [6] relates to HCT-15.
Assay [7] relates to IGROV-1.
Assay [8] has as its system LOX IMVI.
Assay [9] has as its system MOLT-4.
Assay [10] has as its system Malme-3M.
Assay [11] has as its system NCI-H226.
In assay [12] the test system is RPMI-8226.
The subject of assay [13] is SK-MEL-5.
The test system of assay [14] is SNB-19.
The subject of assay [15] is U-251.
Assay [16] deals with DU-145.
For assay [17], the system named is MDA-MB-435.
Assay [18] has as its system MDA-N.
The subject of assay [19] is NCI/ADR-RES.

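Protocol summary: plate cells (96-well), add compound at 5 concentrations, incubate 48 h, interpolate endpoints linearly. GI50: concentration for 50% inhibition of growth.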 Calls of active or inactive are those of the source. Rule as the data show it: active = GI50 up to about 1.1 µM and inactive = higher.

Turning to `O=C1OC(c2ccccc2)=N/C1=C/NC(CS)C(=O)O` (centres undefined), the GI50 is > 100 µM (inactive) in assay [1]; > 100 µM (inactive) in [2]; > 100 µM (inactive) in assay [3]; > 100 µM (inactive) in assay [4]; > 100 µM (inactive) in assay [5]; over 100 µM in [6]. The GI50 in assay [7], in assay [8], in [9], in assay [10], in [11] and in assay [12] was > 100 µM (inactive) each time. For the same molecule, the GI50 in assay [13], in [14] and in assay [15] was > 100 µM (inactive) throughout.

Regarding `Cc1ccccc1NC(=O)c1ccc([N+](=O)[O-])cc1`, the GI50 is > 100 µM (inactive) in assay [1]; > 100 µM (inactive) in assay [2]; > 100 µM (inactive) in assay [3]; > 100 µM (inactive) in assay [4]; > 100 µM (inactive) in [5]; 66.2 µM in [6]. Besides, the GI50 in [7], in [8], in assay [9], in assay [10], in assay [11] and in [12] was > 100 µM (inactive) throughout. Further, the GI50 in [13] was 84.9 µM (inactive); in assay [14], > 100 µM (inactive); in assay [15], > 100 µM (inactive).

Consider `CCCCCNC(=O)CCCCCCCCCCCNC(=O)CCCCCCCCCCN1C=CC(=CC=C2C=CC(=O)C=C2)C=C1`, for which the GI50 was > 100 µM (inactive) in assay [1]; > 100 µM (inactive) in [2]; > 100 µM (inactive) in [3]; 15.1 µM (inactive) in assay [4]; 15.3 µM (inactive) in assay [5]; over 100 µM in assay [6]. Moreover, the GI50 in [7] was 28.4 µM (inactive); in assay [8] it was 34.8 µM (inactive); in assay [9], 29 µM (inactive); in assay [10], 34.9 µM (inactive); in assay [11] it was 63.8 µM (inactive); in assay [12], 8.99 µM (inactive). In addition, the GI50 was 35.2 µM (inactive) in assay [13], 34.8 µM (inactive) in [14] and 32.1 µM (inactive) in assay [15].

Consider `CC1(C)CC2C(C1=O)C1(C)CCCC2(C)C1=O` (centres undefined), for which the GI50 is > 100 µM (inactive) in assay [1]; > 100 µM (inactive) in assay [3]; > 100 µM (inactive) in assay [4]; > 100 µM (inactive) in assay [5]; > 100 µM (inactive) in assay [16]; over 100 µM in assay [6]. The GI50 in assay [7], in [8], in assay [17], in [18], in assay [9] and in [10] was > 100 µM (inactive) in each case. Moreover, the GI50 in assay [11], in [19], in assay [12], in assay [13] and in [15] was > 100 µM (inactive) in each case.

As for `O=[N+]([O-])c1ccc(CNC2=NNS(=O)(=O)c3ccccc32)cc1`, the GI50 in assay [1] is > 100 µM (inactive); in assay [2], 32.1 µM (inactive); in [3], > 100 µM (inactive); in [4] it was 19.5 µM (inactive); in [5], > 100 µM (inactive); in assay [6], 75.5 µM. For the same molecule, the GI50 in assay [7] was > 100 µM (inactive); in assay [8], 54 µM (inactive); in assay [9], 22.3 µM (inactive); in [10], > 100 µM (inactive); in assay [11], > 100 µM (inactive); in [12], 34.5 µM (inactive). The GI50 in assay [13] was > 100 µM (inactive); in assay [14], > 100 µM (inactive); in assay [15] it was 72.1 µM (inactive).

`O=C(NC1C(=O)NNC1c1ccccc1Cl)c1ccccc1` (centres undefined): the GI50 was > 100 µM (inactive) in [1]; > 100 µM (inactive) in [2]; > 100 µM (inactive) in [3]; > 100 µM (inactive) in assay [4]; > 100 µM (inactive) in assay [5]; over 100 µM in [6]. Besides, the GI50 in [7] was > 100 µM (inactive); in assay [8], > 100 µM (inactive); in [9], 64.4 µM (inactive); in [10], > 100 µM (inactive); in assay [11] it was 83 µM (inactive); in assay [12], 82.2 µM (inactive). The GI50 in assay [13], in assay [14] and in assay [15] was > 100 µM (inactive) each time.

On to `COc1ccc2c3c([nH]c2c1)CCN(Cc1ccccc1)C3`, for which the GI50 in [1] was > 10 µM (inactive); in [2], 15.1 µM (inactive); in assay [3] it was 62.1 µM (inactive); in assay [4], 34.3 µM (inactive); in assay [5], 18.7 µM (inactive); in assay [16] it was > 100 µM (inactive). Besides, the GI50 in [6] is 17.9 µM; in assay [7], 73.6 µM (inactive); in assay [8], 15.8 µM (inactive); in [17] it was 23.6 µM (inactive); in [9], 24.8 µM (inactive); in assay [10] it was 18.7 µM (inactive). Moreover, the GI50 in assay [11] is 22.3 µM (inactive); in assay [19], 31.5 µM (inactive); in assay [12], 22.8 µM (inactive); in assay [13], 17 µM (inactive); in assay [14] it was 21.4 µM (inactive); in [15], 22.5 µM (inactive).

With `CN(C)C(=S)/N=c1\ss/c(=N\C(=S)N(C)C)n1C1CCCCC1`, the GI50 was > 100 µM (inactive) in assay [1]; > 100 µM (inactive) in [2]; > 100 µM (inactive) in [3]; 32.7 µM (inactive) in assay [4]; 30.8 µM (inactive) in [5]; over 100 µM in [6]. Moreover, the GI50 is > 100 µM (inactive) in assay [7]; 86.3 µM (inactive) in assay [8]; 80.2 µM (inactive) in assay [9]; > 100 µM (inactive) in [10]; > 100 µM (inactive) in assay [11]; 25.5 µM (inactive) in [12]. The GI50 is 2.29 µM (inactive) in [13], 22 µM (inactive) in [14] and 27.4 µM (inactive) in [15].

For the molecule `COC1CC(C)C(OC)c2cc(O)cc(c2O)NC(=O)/C(C)=C/C=C\C(C)C(OC(N)=O)/C(C)=C\C(C)C1OC` (centres undefined), the GI50 in [1] was 2.03 µM (inactive); in [2], 3.49 µM (inactive); in [3], 2.51 µM (inactive); in [4], 0.192 µM (active); in assay [5], 0.0516 µM (active); in assay [16], 0.231 µM (active). Also, the GI50 in assay [6] was 5.6 µM; in [7], 0.221 µM (active); in [8], 0.471 µM (active); in assay [17] it was 0.0998 µM (active); in [18], 0.144 µM (active); in [9], 0.083 µM (active). Further, the GI50 was 0.225 µM (active) in assay [10]; 7.35 µM (inactive) in assay [11]; 0.152 µM (active) in assay [12]; 0.268 µM (active) in [13]; 3.78 µM (inactive) in assay [14]; 0.497 µM (active) in [15].

As to `O=C(O)Cc1ccccc1CCc1ccccc1Cl`, the GI50 in assay [1] is > 100 µM (inactive); in [2], > 100 µM (inactive); in assay [3], > 100 µM (inactive); in [4] it was > 100 µM (inactive); in assay [5] it was > 100 µM (inactive); in assay [6] it was over 100 µM. In addition, the GI50 was > 100 µM (inactive) in assay [7]; > 100 µM (inactive) in assay [8]; > 100 µM (inactive) in assay [9]; > 100 µM (inactive) in [10]; 68.1 µM (inactive) in [11]; > 100 µM (inactive) in assay [12]. For the same molecule, the GI50 in [13], in assay [14] and in [15] was > 100 µM (inactive) throughout.

As for `O=C(Nc1ccc([N+](=O)[O-])cc1C(=O)O)c1ccc([N+](=O)[O-])cc1`, the GI50 is 31.6 µM (inactive) in assay [1]; 71.9 µM (inactive) in [2]; 59.6 µM (inactive) in assay [3]; 11.4 µM (inactive) in [4]; > 10 µM (inactive) in assay [5]; 20.8 µM in assay [6]. Besides, the GI50 is 29.2 µM (inactive) in assay [7]; 24.2 µM (inactive) in [8]; 14.8 µM (inactive) in [9]; 32.4 µM (inactive) in assay [10]; 17.5 µM (inactive) in [11]; 14.4 µM (inactive) in [12]. In addition, the values for the GI50 in [13], in assay [14] and in assay [15] were 51.3 µM (inactive), 36.6 µM (inactive) and 37.4 µM (inactive), respectively.

`O/N=C1/CCCC/C1=C/C=C/c1ccccc1`: the GI50 in assay [1] was 23.2 µM (inactive); in [2] it was 20.9 µM (inactive); in assay [3], 22.8 µM (inactive); in assay [4] it was 20.6 µM (inactive); in assay [5], 19.4 µM (inactive); in assay [16] it was 22.1 µM (inactive). Also, the GI50 was 14.9 µM in assay [6]; 16.5 µM (inactive) in [7]; 17.2 µM (inactive) in [8]; 19 µM (inactive) in [9]; 21.3 µM (inactive) in assay [10]; 23.6 µM (inactive) in assay [11]. Also, the GI50 in assay [12] was 18.6 µM (inactive); in assay [13], 16.5 µM (inactive); in assay [14], 48 µM (inactive); in assay [15] it was 16.7 µM (inactive).

Turning to `COC[C@H]1OC(=O)c2coc3c2[C@@]1(C)C1=C(C3=O)[C@@H]2CCC(=O)[C@@]2(C)C[C@H]1OC(C)=O` [WORTMANNIN], the GI50 in assay [1] is 8.43 µM (inactive); in [3] it was 6.56 µM (inactive); in [4], 1.38 µM (inactive); in assay [5], 10 µM (inactive); in assay [16], 3.34 µM (inactive); in assay [6] it was 9.91 µM. Besides, the GI50 was 1.28 µM (inactive) in assay [7]; 3.66 µM (inactive) in [8]; 3.25 µM (inactive) in assay [17]; 15.1 µM (inactive) in [18]; 2.09 µM (inactive) in [9]; 38.8 µM (inactive) in [19]. In addition, the GI50 in assay [12] was 2.43 µM (inactive); in assay [13], 11.5 µM (inactive); in assay [14], 6.38 µM (inactive).
